{"source": "paper PMC9798004", "about": "(Frontiers in Psychiatry, 2022)", "key": {"NPFFR1": {"molecular_target": "T1, NPFFR1 (Homo sapiens, UniProt Q9GZQ6)", "T1 construct": "purchased Eurofins DiscoverX (PathHunter gpcrMAX)", "assay": "PathHunter β-arrestin assay", "format": "cell-based", "conditions": "screen, control agonist; CHO, 37C, 2HR"}, "GLP2R": {"molecular_target": "T2, GLP2R (Homo sapiens, UniProt O95838)", "T2 sequence (O95838 1-553)": "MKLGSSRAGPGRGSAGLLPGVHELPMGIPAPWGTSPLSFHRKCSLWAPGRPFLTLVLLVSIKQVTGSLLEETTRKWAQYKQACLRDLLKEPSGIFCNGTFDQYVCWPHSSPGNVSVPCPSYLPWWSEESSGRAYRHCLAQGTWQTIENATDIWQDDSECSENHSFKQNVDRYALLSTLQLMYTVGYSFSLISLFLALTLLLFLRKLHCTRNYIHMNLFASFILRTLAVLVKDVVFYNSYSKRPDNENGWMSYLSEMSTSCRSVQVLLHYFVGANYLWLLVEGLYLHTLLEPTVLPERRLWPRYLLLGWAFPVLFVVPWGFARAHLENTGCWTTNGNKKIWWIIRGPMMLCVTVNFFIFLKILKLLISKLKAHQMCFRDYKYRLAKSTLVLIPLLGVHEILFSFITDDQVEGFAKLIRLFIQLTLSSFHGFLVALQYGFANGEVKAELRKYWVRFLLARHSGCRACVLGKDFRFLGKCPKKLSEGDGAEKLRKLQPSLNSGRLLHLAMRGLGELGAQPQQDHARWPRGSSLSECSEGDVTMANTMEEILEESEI", "assay": "PathHunter β-arrestin assay", "format": "cell-based", "conditions": "control agonist", "protocol": "(§1) Follow up experiments were prioritized based on the difference between S/N and CoV. Targets with a >5-fold difference between S/N and CoV were investigated for their potential contribution to the AMB-FUBINACA toxidrome with 10-point concentration-response curves generated in technical replicate (range 1.5–30 μM) using the EC80 of the relevant agonist, where applicable in antagonist mode. Simultaneous agonist and antagonist curves were run in parallel to ensure reliability of the assay (see Supplementary Table 2), with both RC50 and signal to background aligning with historical averages, and Z' >0.5. RC50 was estimated using a four-parameter fit (CBIS Data Analysis Suite, ChemInnovation, San Diego, CA) on normalized data."}, "HTR2A": {"molecular_target": "T3, HTR2A (Homo sapiens, UniProt P28223)", "T3 construct": "purchased Eurofins DiscoverX (PathHunter gpcrMAX)", "assay": "PathHunter β-arrestin assay", "format": "cell-based", "conditions": "screen, control agonist; U20S, 37C, 2HR"}, "HTR1E": {"molecular_target": "T4, HTR1E (Homo sapiens, UniProt P28566)", "T4 construct": "purchased Eurofins DiscoverX (PathHunter gpcrMAX)", "assay": "PathHunter β-arrestin assay", "format": "cell-based", "conditions": "screen, control agonist; U20S, 37C, 2HR"}, "HTR1A": {"molecular_target": "T5, HTR1A (Homo sapiens, UniProt P08908)", "T5 construct": "purchased Eurofins DiscoverX (PathHunter gpcrMAX)", "assay": "PathHunter β-arrestin assay", "format": "cell-based", "conditions": "screen, control agonist; CHO, 37C, 2HR"}, "HTR1F": {"molecular_target": "T6, HTR1F (Homo sapiens, UniProt P30939)", "T6 construct": "purchased Eurofins DiscoverX (PathHunter gpcrMAX)", "assay": "PathHunter β-arrestin assay", "format": "cell-based", "conditions": "screen, control agonist; U20S, 37C, 2HR"}, "HTR1B": {"molecular_target": "T7, HTR1B (Homo sapiens, UniProt P28222)", "T7 construct": "purchased Eurofins DiscoverX (PathHunter gpcrMAX)", "assay": "PathHunter β-arrestin assay", "format": "cell-based", "conditions": "screen, control agonist; U20S, 37C, 2HR"}, "HTR5A": {"molecular_target": "T8, HTR5A (Homo sapiens, UniProt P47898)", "T8 construct": "purchased Eurofins DiscoverX (PathHunter gpcrMAX)", "assay": "PathHunter β-arrestin assay", "format": "cell-based", "conditions": "screen, control agonist; U20S, 37C, 2HR"}, "ADORA3": {"molecular_target": "T9, ADORA3 (Homo sapiens, UniProt P0DMS8)", "T9 construct": "host or cells: CHO", "T9 sequence (P0DMS8 whole entry)": "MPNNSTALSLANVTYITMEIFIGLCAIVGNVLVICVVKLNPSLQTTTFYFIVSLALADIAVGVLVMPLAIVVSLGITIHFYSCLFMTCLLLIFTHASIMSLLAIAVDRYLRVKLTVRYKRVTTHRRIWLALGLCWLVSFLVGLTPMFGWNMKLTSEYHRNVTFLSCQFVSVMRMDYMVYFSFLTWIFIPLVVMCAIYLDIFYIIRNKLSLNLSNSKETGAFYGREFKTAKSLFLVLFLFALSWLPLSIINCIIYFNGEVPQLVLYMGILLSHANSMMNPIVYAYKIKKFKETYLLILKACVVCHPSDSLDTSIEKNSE", "assay": "PathHunter β-arrestin assay", "format": "cell-based", "conditions": "follow-up assays, control antagonist"}, "MRGPRX2": {"molecular_target": "T10, MRGPRX2 (Homo sapiens, UniProt Q96LB1)", "T10 sequence (Q96LB1 1-330)": "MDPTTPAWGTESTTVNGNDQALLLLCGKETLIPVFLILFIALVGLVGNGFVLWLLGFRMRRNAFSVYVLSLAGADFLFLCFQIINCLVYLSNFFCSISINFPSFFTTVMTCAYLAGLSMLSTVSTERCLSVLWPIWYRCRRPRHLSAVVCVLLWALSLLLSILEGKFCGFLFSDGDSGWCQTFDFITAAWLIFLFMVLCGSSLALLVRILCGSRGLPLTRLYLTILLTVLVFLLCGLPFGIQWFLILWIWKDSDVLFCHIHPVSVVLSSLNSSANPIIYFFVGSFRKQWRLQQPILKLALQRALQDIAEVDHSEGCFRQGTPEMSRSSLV", "assay": "PathHunter β-arrestin assay", "format": "cell-based", "conditions": "control agonist", "protocol": "as §1"}, "LTB4R": {"molecular_target": "T11, LTB4R (Homo sapiens, UniProt Q15722)", "T11 construct": "purchased Eurofins DiscoverX (PathHunter gpcrMAX)", "T11 sequence (Q15722 whole entry)": "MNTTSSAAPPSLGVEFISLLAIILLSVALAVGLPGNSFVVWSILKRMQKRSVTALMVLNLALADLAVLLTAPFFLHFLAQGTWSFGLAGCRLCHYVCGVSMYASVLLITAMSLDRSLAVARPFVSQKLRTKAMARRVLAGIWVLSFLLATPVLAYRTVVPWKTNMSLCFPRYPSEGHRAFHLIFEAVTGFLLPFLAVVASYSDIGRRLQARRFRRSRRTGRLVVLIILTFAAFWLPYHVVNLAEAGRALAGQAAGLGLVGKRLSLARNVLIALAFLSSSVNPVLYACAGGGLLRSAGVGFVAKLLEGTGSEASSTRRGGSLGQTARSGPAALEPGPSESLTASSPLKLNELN", "assay": "PathHunter β-arrestin assay", "format": "cell-based", "conditions": "screen, control agonist; CHO, 37C, 2HR"}, "CB1": {"tested_on": "CB1", "set-up": "method as in PMID 20599795", "conditions": "10 nM, 15 min application; not recovered up to 5 h later; cited from earlier work"}, "MRGPRX1": {"molecular_target": "T12, MRGPRX1 (Homo sapiens, UniProt Q96LB2)", "T12 construct": "purchased Eurofins DiscoverX (PathHunter gpcrMAX)", "T12 sequence (Q96LB2 whole entry)": "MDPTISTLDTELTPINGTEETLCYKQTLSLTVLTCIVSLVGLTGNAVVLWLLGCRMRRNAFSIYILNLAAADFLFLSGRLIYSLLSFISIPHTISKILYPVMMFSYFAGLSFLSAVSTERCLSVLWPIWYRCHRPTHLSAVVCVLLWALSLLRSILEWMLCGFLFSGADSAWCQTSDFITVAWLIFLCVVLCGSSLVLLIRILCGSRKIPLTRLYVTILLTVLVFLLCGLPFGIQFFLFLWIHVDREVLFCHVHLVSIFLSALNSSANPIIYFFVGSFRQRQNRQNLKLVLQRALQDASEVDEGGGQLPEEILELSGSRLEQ", "assay": "PathHunter β-arrestin assay", "format": "cell-based", "conditions": "screen, control agonist; CHO, 37C, 2HR"}, "MCHR2": {"molecular_target": "T13, MCHR2 (Homo sapiens, UniProt Q969V1)", "T13 construct": "purchased Eurofins DiscoverX (PathHunter gpcrMAX)", "T13 sequence (Q969V1 whole entry)": "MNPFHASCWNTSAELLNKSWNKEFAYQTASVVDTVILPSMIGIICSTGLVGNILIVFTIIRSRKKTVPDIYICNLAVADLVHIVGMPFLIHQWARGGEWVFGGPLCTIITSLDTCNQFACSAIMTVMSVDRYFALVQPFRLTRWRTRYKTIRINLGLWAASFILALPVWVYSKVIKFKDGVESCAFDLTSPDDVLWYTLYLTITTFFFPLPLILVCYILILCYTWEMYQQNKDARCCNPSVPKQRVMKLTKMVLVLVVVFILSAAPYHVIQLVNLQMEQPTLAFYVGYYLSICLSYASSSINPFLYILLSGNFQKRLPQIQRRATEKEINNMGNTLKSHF", "assay": "PathHunter β-arrestin assay", "format": "cell-based", "conditions": "screen, control agonist; U2OS, 37C, 2HR"}, "[1]": {"conditions": "follow-up concentration-response assays"}}, "note": "No end group written: not given here.", "data": [{"compound": "RFRP-3", "values": [{"measurement": "EC80", "setting": "NPFFR1", "result": 0.148, "unit": "µM"}]}, {"compound": "GLP II (1-33)", "values": [{"measurement": "EC80", "setting": "GLP2R; [1]", "result": 0.00296, "unit": "µM"}, {"measurement": "EC80", "setting": "GLP2R; screen, CHO, 37C, 2HR", "result": 0.00888, "unit": "µM"}]}, {"compound": "NCCc1c[nH]c2ccc(O)cc12", "note": "[Serotonin / 5-HT, Serotonin]", "values": [{"measurement": "EC80", "setting": "HTR2A", "result": 0.171, "unit": "µM"}, {"measurement": "EC80", "setting": "HTR1E", "result": 0.0216, "unit": "µM"}, {"measurement": "EC80", "setting": "HTR1A", "result": 0.377, "unit": "µM"}, {"measurement": "EC80", "setting": "HTR1F", "result": 0.127, "unit": "µM"}, {"measurement": "EC80", "setting": "HTR1B", "result": 0.173, "unit": "µM"}, {"measurement": "EC80", "setting": "HTR5A", "result": 0.0264, "unit": "µM"}]}, {"compound": "COc1ccccc1NC(=O)Nc1nc(-c2cccnc2)nc2ccccc12", "note": "[VUF 5574]", "values": [{"measurement": "IC50", "setting": "ADORA3", "result": 0.00373, "unit": "µM"}]}, {"compound": "Cortistatin 14 (PCKNFFWKTFSSCK; ends and bridges not checked; cysteine pairing not given here; UniProt Q62949 99-112, looked up) [control agonist]", "values": [{"measurement": "EC80", "setting": "MRGPRX2; [1]", "result": 0.7375, "unit": "µM"}, {"measurement": "EC80", "setting": "MRGPRX2; screen, CHO, 37C, 2HR", "result": 0.738, "unit": "µM"}]}, {"compound": "CCCCC/C=C\\C[C@@H](O)/C=C/C=C/C=C\\[C@@H](O)CCCC(=O)O", "note": "[Leukotriene B4]", "values": [{"measurement": "EC80", "setting": "LTB4R", "result": 0.456, "unit": "µM"}]}, {"compound": "CCCCCCC(C)(C)c1cc(O)c2c(c1)OC(C)(C)[C@@H]1CC=C(CO)C[C@@H]21", "note": "[HU210]", "values": [{"measurement": "CB1 internalization", "setting": "CB1", "result": "near maximal internalization"}]}, {"compound": "BAM(8-22)", "values": [{"measurement": "EC80", "setting": "MRGPRX1", "result": 8.58, "unit": "µM"}]}, {"compound": "MCH: control agonist for MCHR1 and MCHR2", "values": [{"measurement": "EC80", "setting": "MCHR2", "result": 0.0593, "unit": "µM"}]}]}
